Assay results as given in patent US9260439B2, “Dihydropyrrolopyrimidine derivatives” (PFIZER INC., priority 2014, dated 2016).

Target: full-length PI3Kα (full-length p110α/p85α) (Homo sapiens (Human), UniProt P42336)
Test: PI3KA_FL fluorescence polarization kinase assay (Ki)
Assay type: biochemical
Settings: 41 μM ATP
Text: Enzyme Production for Biochemical Assays: 1) PI3Kα Complex (Full Length p110α and p85α)(“PI3KA_FL”)
Genes encoding for full length p110α and p85α subunits of PI3Kα complex were subcloned from existing constructs into pFASTBAC Dual vector (Life Technologies, Carlsbad, Calif.) using standard cloning procedures. Gene encoding p110α subunit was subcloned into polyhedrine promoter while gene encoding p85α subunit was subcloned into p10 promoter. Additionally, sequence encoding for histidine tag and Tobacco Etch Virus (“TEV”) cleavage site preceded p110α ORF (Open Reading Frame). Recombinant baculovirus was generated using Bac-to-Bac protocol (Life Technologies, Carlsbad, Calif.) and large scale expression was conducted in Sf21 (Life Technologies, Carlsbad, Calif.) cells at a multiplicity of infection (“MOI”)=1 for 72 hours. Cells were lyzed in 50 mM Tris pH 8.0, 250 mM NaCl, 5% glycerol, 0.25 mM TCEP, and 20 mM imidazole. The PI3Kα complex was purified from clarified supernatant using Immobilized Metalo Affinity Chromatography (“IMAC”). The protein was eluted from the column using 50 mM Tris pH 8.0, 200 mM NaCl, 5% glycerol, 0.25 mM TCEP, and 200 mM imidazole, and further desalted into 50 mM Tris pH 8.0, 20 mM NaCl, and 0.25 mM TCEP prior to loading on MonoQ sepharose (GE Healthcare, Piscataway, N.J.). PI3Kα complex was eluted from MonoQ sepharose over 20 column volumes using 0-30% gradient of buffer B (50 mM Tris pH 8.0, 1 M NaCl, and 0.25 mM TCEP). The peak fractions were pulled together and loaded on Superdex 200 26/60 SEC column equilibrated in 50 mM Tris pH 8.0, 200 mM NaCl, and 0.5 mM TCEP. […] Purity and integrity of the complex was confirmed using LCMS, analytical SEC and SDS-PAGE (sodium dodecyl sulfate polyacrylamide gel electrophoresis) analysis.
The biochemical assays of kinase activity of full-length PI3Kα (full-length p110α/p85a) or truncated PI3Kα (p110α/iSH2 p85a) were conducted using a fluorescence polarization format similar to the procedure of Yuan J., et al., (2011) “PF-04691502, a Potent and Selective Oral Inhibitor of PI3K and mTOR Kinases with Antitumor Activity”, Mol Cancer Ther. 10, 2189-2199. The enzymatic reactions were conducted in 50 μL volumes in 96-well plates. The reactions contained human recombinant PI3Kα (2 nM full-length p110α/p85α or 0.5 nM p110α/iSH2 p85) and 30 μM phosphatidylinositol 4,5-bisphosphate (“PIP2”) (Cayman Chemical Company, Ann Arbor, Mich.) and were sonicated for 1 minute prior to adding PI3Kα enzyme (PI3KA_Act or PI3KA_FL), DMSO or test compound (12-point 3-fold serial dilution, 3 μM top dose, 2° A) DMSO final concentration), 5 mM MgCl2, 50 mM HEPES pH 7.4, 150 mM NaCl, 1 mM DTT ((2S,3S)-1,4-bis(sulfanyl)butane-2,3-diol), and 0.05% 3-[(3-cholamidopropyl)dimethylammonio]-1-propanesulfonate (“CHAPS”). […] The reactions were incubated for 30 min at room temperature, stopped with EDTA pH 8 (10 mM final concentration). In a detection plate, 15 μL of detector/probe mixture, containing 480 nM GST-Grp1 PH domain protein (University of Dundee, Dundee, UK) and 12 nM carboxytetramethylrhodamine (“TAMRA”)-tagged fluorescent phosphatidylinositol (3,4,5)-triphosphate (“PIP3”) (Echelon Biosciences, Inc., Salt Lake City, Utah) in assay buffer, was mixed with 15 μL of kinase reaction mixture. The plate was shaken for 30 minutes and fluorescence polarization values were measured on an LJL Analyst HT plate reader (Molecular Devices, Sunnyvale, Calif.). […] The inhibition constants (Ki) were calculated by fitting fluorescence polarization values, corresponding to initial reaction rates, to the Morrison equation (Morrison, J. F. (1969) Kinetics of the reversible inhibition of enzyme catalysed reactions by tight-binding inhibitors. Biochim. Biophys. Acta 185, 269-286) for tight-binding competitive inhibitors using non-linear regression method (GraphPad Prism, GraphPad Software, San Diego, Calif.).

Sequence of full-length PI3Kα (full-length p110α/p85α) (P42336 whole entry): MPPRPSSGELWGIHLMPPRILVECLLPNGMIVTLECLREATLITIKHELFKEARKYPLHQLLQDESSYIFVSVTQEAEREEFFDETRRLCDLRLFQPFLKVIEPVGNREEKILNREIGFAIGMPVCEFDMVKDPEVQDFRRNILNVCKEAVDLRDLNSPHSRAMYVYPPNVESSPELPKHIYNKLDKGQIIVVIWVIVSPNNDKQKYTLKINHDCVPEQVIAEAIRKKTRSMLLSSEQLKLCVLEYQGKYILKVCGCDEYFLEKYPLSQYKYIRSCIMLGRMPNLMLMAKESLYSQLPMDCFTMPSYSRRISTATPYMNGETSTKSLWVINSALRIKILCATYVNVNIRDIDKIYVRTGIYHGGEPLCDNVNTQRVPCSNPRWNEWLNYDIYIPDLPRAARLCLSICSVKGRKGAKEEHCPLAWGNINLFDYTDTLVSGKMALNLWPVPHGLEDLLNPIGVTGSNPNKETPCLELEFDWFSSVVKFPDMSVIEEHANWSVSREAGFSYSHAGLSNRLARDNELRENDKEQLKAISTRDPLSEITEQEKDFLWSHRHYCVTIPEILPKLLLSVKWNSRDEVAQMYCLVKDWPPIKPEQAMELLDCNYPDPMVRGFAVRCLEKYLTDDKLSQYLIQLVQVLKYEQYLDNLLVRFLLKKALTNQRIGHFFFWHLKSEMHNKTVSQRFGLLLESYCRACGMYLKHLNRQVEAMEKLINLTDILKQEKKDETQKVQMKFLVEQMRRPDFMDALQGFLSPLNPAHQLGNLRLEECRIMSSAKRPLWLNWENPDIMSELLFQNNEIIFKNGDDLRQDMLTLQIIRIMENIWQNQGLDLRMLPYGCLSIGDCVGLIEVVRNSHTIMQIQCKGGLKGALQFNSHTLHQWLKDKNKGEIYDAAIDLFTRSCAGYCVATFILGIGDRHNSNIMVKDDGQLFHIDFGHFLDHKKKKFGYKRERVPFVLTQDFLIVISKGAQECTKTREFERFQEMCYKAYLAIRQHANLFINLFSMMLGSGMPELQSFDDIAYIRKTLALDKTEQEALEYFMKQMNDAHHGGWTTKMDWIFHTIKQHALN
Sequence of full-length PI3Kα (full-length p110α/p85α) (P27986 whole entry partner): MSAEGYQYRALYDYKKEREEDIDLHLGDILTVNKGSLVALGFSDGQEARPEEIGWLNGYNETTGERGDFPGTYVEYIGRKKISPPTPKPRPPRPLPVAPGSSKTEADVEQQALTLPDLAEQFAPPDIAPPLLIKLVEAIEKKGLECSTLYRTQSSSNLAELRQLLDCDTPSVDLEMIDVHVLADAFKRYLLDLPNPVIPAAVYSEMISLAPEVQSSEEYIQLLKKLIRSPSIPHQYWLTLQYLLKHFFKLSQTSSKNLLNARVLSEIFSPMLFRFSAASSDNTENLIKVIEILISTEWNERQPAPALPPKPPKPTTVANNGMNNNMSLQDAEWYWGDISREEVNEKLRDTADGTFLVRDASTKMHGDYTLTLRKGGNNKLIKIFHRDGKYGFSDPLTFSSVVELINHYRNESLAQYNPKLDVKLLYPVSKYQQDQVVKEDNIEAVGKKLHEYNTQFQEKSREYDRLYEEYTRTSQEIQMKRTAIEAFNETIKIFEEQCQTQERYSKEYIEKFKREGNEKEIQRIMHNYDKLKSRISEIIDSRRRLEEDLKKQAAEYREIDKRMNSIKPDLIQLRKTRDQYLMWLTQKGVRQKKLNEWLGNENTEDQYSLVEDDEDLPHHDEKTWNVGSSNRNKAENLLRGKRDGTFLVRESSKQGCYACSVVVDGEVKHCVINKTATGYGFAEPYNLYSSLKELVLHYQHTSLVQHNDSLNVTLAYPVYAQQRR

## CC(=O)N1CC(N2CCc3c(-c4cnc(N)nc4)nc(N4CCOCC4)nc32)C1 [Example 33]
  PI3KA_FL Ki: 5.195 nM

## CO[C@H]1CC[C@H](N2CCc3c(-c4cnc(N)nc4)nc(N4CCOCC4)nc32)CC1 [Example 36]
  PI3KA_FL Ki: 19.031 nM

## C[C@]1(O)C[C@H](N2CCc3c(-c4cnc(N)nc4)nc(N4CCOCC4)nc32)C1 [Example 39]
  PI3KA_FL Ki: 0.738 nM

## CO[C@H]1C[C@H](N2CCc3c(-c4cnc(N)nc4)nc(N4CCOCC4)nc32)C1 [Example 40]
  PI3KA_FL Ki: 0.416 nM

## C[C@@H](O)C(=O)N1CC[C@H](N2CCc3c(-c4cnc(N)nc4)nc(N4CCOCC4)nc32)C1 [Example 41]
  PI3KA_FL Ki: 1.376 nM

## CC(=O)N[C@H]1C(C)(C)[C@@H](N2CCc3c(-c4cnc(N)nc4)nc(N4CCOCC4)nc32)C1(C)C [Example 42]
  PI3KA_FL Ki: 7.677 nM

## Nc1ncc(-c2nc(N3CCOCC3)nc3c2CCN3[C@H]2CCN(C=O)C2)cn1 [Example 43]
  PI3KA_FL Ki: 1.310 nM

## C[C@]1(O)C[C@@H](N2CCc3c(-c4cnc(N)nc4)nc(N4CCOCC4)nc32)C1 [Example 44]
  PI3KA_FL Ki: 1.965 nM

## Nc1ncc(-c2nc(N3CCOCC3)nc3c2CCN3[C@H]2CCCOC2)cn1 [Example 47]
  PI3KA_FL Ki: 3.320 nM

## Nc1ncc(-c2nc(N3CCOCC3)nc3c2CCN3[C@@H]2CCCOC2)cn1 [Example 48]
  PI3KA_FL Ki: 3.543 nM

## CN([C@H]1C[C@@H](N2CCc3c(-c4cnc(N)nc4)nc(N4CCOCC4)nc32)C1)S(C)(=O)=O [Example 49]
  PI3KA_FL Ki: 0.722 nM

## CC(=O)N[C@@H]1CC[C@H]1N1CCc2c(-c3cnc(N)nc3)nc(N3CCOCC3)nc21 [Example 50]
  PI3KA_FL Ki: 18.596 nM

## CC(=O)N1C[C@@H](N2CCc3c(-c4cnc(N)nc4)nc(N4CCOCC4)nc32)[C@@H](C)C1 [Example 52]
  PI3KA_FL Ki: 2.799 nM

## Nc1ncc(-c2nc(N3CCOCC3)nc3c2CCN3[C@H]2C[C@H](C(N)=O)C2)cn1 [Example 53]
  PI3KA_FL Ki: 0.774 nM

## CC(=O)N1CCC[C@H](N2CCc3c(-c4cnc(N)nc4)nc(N4CCOCC4)nc32)C1 [Example 54]
  PI3KA_FL Ki: 8.634 nM

## CC(=O)N1CCC[C@@H](N2CCc3c(-c4cnc(N)nc4)nc(N4CCOCC4)nc32)C1 [Example 55]
  PI3KA_FL Ki: 3.904 nM

## CC(=O)N1C[C@H](C(F)F)[C@H](N2CCc3c(-c4cnc(N)nc4)nc(N4CCOCC4)nc32)C1 [Example 56]
  PI3KA_FL Ki: 35.745 nM

## NC(=O)N1CC[C@H](N2CCc3c(-c4cnc(N)nc4)nc(N4CCOCC4)nc32)C1 [Example 58]
  PI3KA_FL Ki: 0.794 nM

## CC(=O)N1C[C@@H](C(F)F)[C@@H](N2CCc3c(-c4cnc(N)nc4)nc(N4CCOCC4)nc32)C1 [Example 60]
  PI3KA_FL Ki: 27.752 nM

## Nc1ncc(-c2nc(N3CCOCC3)nc3c2CCN3C2CN(C=O)C2)cn1 [Example 62]
  PI3KA_FL Ki: 0.888 nM

## CC(=O)N1C[C@@H](N2CCc3c(-c4cnc(N)nc4)nc(N4CCOCC4)nc32)[C@H](C(F)F)C1 [Example 63]
  PI3KA_FL Ki: 6.612 nM

## Nc1ncc(-c2nc(N3CCOCC3)nc3c2CCN3[C@H]2C[C@@H](F)C2)cn1 [Example 64]
  PI3KA_FL Ki: 0.508 nM

## Nc1ncc(-c2nc(N3CCOCC3)nc3c2CCN3[C@H]2C[C@H](F)C2)cn1 [Example 65]
  PI3KA_FL Ki (nM): ≦0.229 nM

## CC(=O)N1C[C@@H](C)[C@@H](N2CCc3c(-c4cnc(N)nc4)nc(N4CCOCC4)nc32)C1 [Example 68]
  PI3KA_FL Ki: 9.393 nM

## CC(=O)N[C@H]1CC[C@@H]1N1CCc2c(-c3cnc(N)nc3)nc(N3CCOCC3)nc21 [Example 70]
  PI3KA_FL Ki: 4.601 nM

## CC(=O)N1C[C@H](C(F)F)[C@@H](N2CCc3c(-c4cnc(N)nc4)nc(N4CCOCC4)nc32)C1 [Example 71]
  PI3KA_FL Ki: 8.899 nM

## Nc1ncc(-c2nc(N3CCOCC3)nc3c2CCN3[C@@H]2CCNC(=O)C2)cn1 [Example 77]
  PI3KA_FL Ki: 8.025 nM

## Nc1ncc(-c2nc(N3CCOCC3)nc3c2CCN3[C@H]2CCNC(=O)C2)cn1 [Example 78]
  PI3KA_FL Ki: 14.681 nM

## CS(=O)(=O)N1CC[C@@H](N2CCc3c(-c4cnc(N)nc4)nc(N4CCOCC4)nc32)C1 [Example 80]
  PI3KA_FL Ki: 1.247 nM

## CNS(=O)(=O)N1CC[C@@H](N2CCc3c(-c4cnc(N)nc4)nc(N4CCOCC4)nc32)C1 [Example 81]
  PI3KA_FL Ki: 0.788 nM

## C[C@H]1COCCN1c1nc(-c2cnc(N)nc2)c2c(n1)N([C@@H]1CCN(S(C)(=O)=O)C1)CC2 [Example 83]
  PI3KA_FL Ki: 0.761 nM

## Nc1ncc(-c2nc(N3CCOCC3)nc3c2CCN3[C@@H]2CCN(S(N)(=O)=O)C2)cn1 [Example 84]
  PI3KA_FL Ki: 3.507 nM

## NC(=O)N1CC(N2CCc3c(-c4cnc(N)nc4)nc(N4CCOCC4)nc32)C1 [Example 86]
  PI3KA_FL Ki: 3.673 nM

## C[C@H]1COCCN1c1nc(-c2cnc(N)nc2)c2c(n1)N(C1CC(F)(F)C1)CC2 [Example 87]
  PI3KA_FL Ki: 0.462 nM

## C[C@H]1COCCN1c1nc(-c2cnc(N)nc2)c2c(n1)N([C@H]1C[C@H](N(C)S(C)(=O)=O)C1)CC2 [Example 90]
  PI3KA_FL Ki: 0.403 nM

## CNS(=O)(=O)N1CCC[C@H](N2CCc3c(-c4cnc(N)nc4)nc(N4CCOCC4)nc32)C1 [Example 91]
  PI3KA_FL Ki: 1.472 nM

## CC(C)[C@@H](O)C(=O)N(C)[C@H]1C[C@H](N2CCc3c(-c4cnc(N)nc4)nc(N4CCOC[C@@H]4C)nc32)C1 [Example 94]
  PI3KA_FL Ki: 2.371 nM

## CC(=O)N1CC[C@H](N2CCc3c(-c4cnc(N)nc4)nc(N4CCOC[C@@H]4C)nc32)C1 [Example 96]
  PI3KA_FL Ki: 2.093 nM

## CNS(=O)(=O)N1CCC[C@@H](N2CCc3c(-c4cnc(N)nc4)nc(N4CCOCC4)nc32)C1 [Example 97]
  PI3KA_FL Ki: 3.632 nM

## CO[C@@H]1CN(C(C)=O)C[C@H]1N1CCc2c(-c3cnc(N)nc3)nc(N3CCOC[C@@H]3C)nc21 [Example 98]
  PI3KA_FL Ki: 1.244 nM

## CS(=O)(=O)N1CCC[C@H](N2CCc3c(-c4cnc(N)nc4)nc(N4CCOCC4)nc32)C1 [Example 99]
  PI3KA_FL Ki: 2.122 nM

## CO[C@@H]1CN(S(C)(=O)=O)C[C@H]1N1CCc2c(-c3cnc(N)nc3)nc(N3CCOC[C@@H]3C)nc21 [Example 103]
  PI3KA_FL Ki: 0.557 nM

## CS(=O)(=O)N[C@H]1C[C@@H](N2CCc3c(-c4cnc(N)nc4)nc(N4CCOCC4)nc32)C1 [Example 107]
  PI3KA_FL Ki: 1.388 nM

## CN(C)S(=O)(=O)N1CC(N2CCc3c(-c4cnc(N)nc4)nc(N4CCOCC4)nc32)C1 [Example 110]
  PI3KA_FL Ki: 0.735 nM

## CCS(=O)(=O)N1CC[C@@H](N2CCc3c(-c4cnc(N)nc4)nc(N4CCOCC4)nc32)C1 [Example 112]
  PI3KA_FL Ki: 0.491 nM

## CS(=O)(=O)[C@H]1CC[C@@H](N2CCc3c(-c4cnc(N)nc4)nc(N4CCOCC4)nc32)C1 [Example 114]
  PI3KA_FL Ki: 1.268 nM

## CC(C)S(=O)(=O)N1CC(N2CCc3c(-c4cnc(N)nc4)nc(N4CCOCC4)nc32)C1 [Example 116]
  PI3KA_FL Ki: 0.961 nM

## CC(C)OC(=O)N1CC[C@H](N2CCc3c(-c4cnc(N)nc4)nc(N4CCOC[C@@H]4C)nc32)C1 [Example 124]
  PI3KA_FL Ki: 0.333 nM

## C[C@H]1COCCN1c1nc(-c2cnc(N)nc2)c2c(n1)N([C@@H]1CN(S(N)(=O)=O)C[C@H]1O)CC2 [Example 127]
  PI3KA_FL Ki: 0.789 nM

## CN(C)S(=O)(=O)[C@H]1CC[C@@H](N2CCc3c(-c4cnc(N)nc4)nc(N4CCOCC4)nc32)C1 [Example 129]
  PI3KA_FL Ki: 0.380 nM
